In ChEMBL document CHEMBL6121052, “Design of ROS-Triggered Sesquiterpene Lactone SC Prodrugs as TrxR1 Covalent Inhibitors for the Treatment of Non-Small Cell Lung Cancer” (J Med Chem, 2025):

Columns and labels:
NCI-H460 = test: Cytotoxicity against human NCI-H460 cells assessed as cell viability incubated for 48 hrs by MTT assay; assay type: functional, cell-based; settings: NCI-H460, 48 h
A549 = test: Cytotoxicity against human A549 cells assessed as cell viability incubated for 48 hrs by MTT assay; assay type: functional, cell-based; settings: A549, 48 h

C/C1=C\[C@@H](OC(=O)/C=C/c2ccccc2)[C@H]2[C@H](CC3=C[C@H](C1)OC3=O)OC(=O)[C@@H]2CSCCCCCSC[C@H]1C(=O)O[C@H]2CC3=C[C@H](C/C(C)=C/[C@@H](OC(=O)/C=C/c4ccccc4)[C@@H]21)OC3=O
IC50 (NCI-H460): > 25 µM
IC50 (A549): > 25 µM

C/C1=C\[C@@H](OC(=O)c2ccccc2)[C@H]2[C@H](CC3=C[C@H](C1)OC3=O)OC(=O)[C@@H]2CSc1cccc(F)c1
IC50 (NCI-H460): > 25 µM
IC50 (A549): 6.17 µM

C/C1=C\[C@@H](OC(=O)c2ccccc2)[C@H]2[C@H](CC3=C[C@H](C1)OC3=O)OC(=O)[C@@H]2CSc1cccc(Br)c1
IC50 (NCI-H460): > 25 µM
IC50 (A549): 3.66 µM

C/C1=C\[C@@H](OC(=O)c2ccccc2)[C@H]2[C@H](CC3=C[C@H](C1)OC3=O)OC(=O)[C@@H]2CSCC(C)C
IC50 (NCI-H460): > 25 µM
IC50 (A549): > 25 µM

C/C1=C\[C@@H](O)[C@H]2[C@H](CC3=C[C@H](C1)OC3=O)OC(=O)[C@@H]2CSCCCCCSC[C@H]1C(=O)O[C@H]2CC3=C[C@H](C/C(C)=C/[C@@H](O)[C@@H]21)OC3=O
IC50 (NCI-H460): > 25 µM
IC50 (A549): > 25 µM

C/C1=C\[C@@H](OC(=O)C2CC2)[C@H]2[C@H](CC3=C[C@H](C1)OC3=O)OC(=O)[C@@H]2CSCC(C)C
IC50 (NCI-H460): > 25 µM
IC50 (A549): > 25 µM

C/C1=C\[C@@H](OC(=O)C2CC2)[C@H]2[C@H](CC3=C[C@H](C1)OC3=O)OC(=O)[C@@H]2CSCCCCCCSC[C@H]1C(=O)O[C@H]2CC3=C[C@H](C/C(C)=C/[C@@H](OC(=O)C4CC4)[C@@H]21)OC3=O
IC50 (NCI-H460): > 25 µM
IC50 (A549): > 25 µM

C/C1=C\[C@@H](OC(=O)c2ccccc2)[C@H]2[C@H](CC3=C[C@H](C1)OC3=O)OC(=O)[C@@H]2CSc1ccc(C(F)(F)F)cc1
IC50 (NCI-H460): 24.4 µM
IC50 (A549): 3.74 µM

C/C1=C\[C@@H](OC(=O)c2ccccc2)[C@H]2[C@H](CC3=C[C@H](C1)OC3=O)OC(=O)[C@@H]2CSc1ccc([N+](=O)[O-])cc1
IC50 (NCI-H460): > 25 µM
IC50 (A549): 2.59 µM

C/C1=C\[C@@H](O)[C@H]2[C@H](CC3=C[C@H](C1)OC3=O)OC(=O)[C@@H]2CSc1nc2ccccc2s1
IC50 (NCI-H460): > 25 µM
IC50 (A549): > 25 µM

C/C1=C\[C@@H](OC(=O)C2CC2)[C@H]2[C@H](CC3=C[C@H](C1)OC3=O)OC(=O)[C@@H]2CSCCCCCSC[C@H]1C(=O)O[C@H]2CC3=C[C@H](C/C(C)=C/[C@@H](OC(=O)C4CC4)[C@@H]21)OC3=O
IC50 (NCI-H460): > 25 µM
IC50 (A549): > 25 µM

C/C1=C\[C@@H](OC(=O)c2ccccc2)[C@H]2[C@H](CC3=C[C@H](C1)OC3=O)OC(=O)[C@@H]2CSc1nc2ccccc2s1
IC50 (NCI-H460): > 25 µM
IC50 (A549): > 25 µM

C/C1=C\[C@@H](OC(=O)c2ccccc2)[C@H]2[C@H](CC3=C[C@H](C1)OC3=O)OC(=O)[C@@H]2CSCCCCCSC[C@H]1C(=O)O[C@H]2CC3=C[C@H](C/C(C)=C/[C@@H](OC(=O)c4ccccc4)[C@@H]21)OC3=O
IC50 (NCI-H460): > 25 µM
IC50 (A549): > 25 µM

C/C1=C\[C@@H](OC(=O)c2ccccc2)[C@H]2[C@H](CC3=C[C@H](C1)OC3=O)OC(=O)[C@@H]2CSc1ccc(SC[C@H]2C(=O)O[C@H]3CC4=C[C@H](C/C(C)=C/[C@@H](OC(=O)c5ccccc5)[C@@H]32)OC4=O)cc1
IC50 (NCI-H460): > 25 µM
IC50 (A549): > 25 µM

C/C1=C\[C@@H](OC(=O)/C=C/c2ccccc2)[C@H]2[C@H](CC3=C[C@H](C1)OC3=O)OC(=O)[C@@H]2CSCCCCCCCCCCSC[C@H]1C(=O)O[C@H]2CC3=C[C@H](C/C(C)=C/[C@@H](OC(=O)/C=C/c4ccccc4)[C@@H]21)OC3=O
IC50 (NCI-H460): > 25 µM
IC50 (A549): > 25 µM
